Results reported in patent publication US20140121407A1, “DEUTERATED PHENYLPROPIONIC ACID DERIVATIVE” (RESEARCH FOUNDATION ITSUU LABORATORY, priority 2011, published 2014).
Where two headings read alike, the source gives them in different places.

Test: In vivo kinetic parameters in mouse after oral administration (plasma, LC/MS)
Conditions: for half-life: read-out: t½ (converted)
Experimental: 6-Week old ddY male mice were starved for 12 hours, and then used for the experiment. To the mice, Am80 (3.30 mg/kg), 3-[4-[(5,6,7,8-tetrahydro-5,5,8,8-tetramethyl-2-naphthalenyl)carbamoyl]phenyl]propionic acid (protium compound, M700, 3.56 mg/kg), or 3-[4-[(5,6,7,8-tetrahydro-5,5,8,8-tetramethyl-2-naphthalenyl)carbamoyl]phenyl]propionic acid-2,2,3,3-d4 (deuterated propionic acid derivative, Y616, 3.60 mg/kg) was orally administered (the dose in terms of molar amount was 9.4 μmol/kg for all the compounds). A 94 mM solution of each compound in DMSO was prepared, and suspended in 0.5% methylcellulose so as to be diluted 100 times, and the suspension was orally administered at a dose of 10 ml/kg by using a 1-ml syringe and a catheter for oral administration.
After 15 minutes, 30 minutes, 1 hour, 2 hours, 3 hours, 6 hours, 12 hours, and 24 hours from the administration of each compound, whole blood was collected from the mouse abdominal aorta under diethyl ether anesthesia by using a heparin-treated glass syringe and a 26G hypodermic needle (five mice were used for each compound). The collected blood was centrifuged at 13,700×g and 4° C. for 5 minutes to separate the plasma, and the separated plasma was stored at −30° C.
The plasma (100 μL) was put into a 1.5-ml tube, and added with ethyl acetate (400 μl), the mixture was stirred, ultrasonicated for 1 minute, and centrifuged at 13,700×g and 20° C. for 3 minutes, and the supernatant was collected. The residue was added with ethyl acetate (400 μl), and the mixture was subjected once again to the aforementioned procedure. The collected supernatant was put into a 1.5-ml tube in an appropriate volume, and dried with nitrogen gas. The residue was dissolved in methanol (100 μl) to obtain a sample for LC/MS.
All the samples were used for […] in a volume of 5 μl. The LC/MS apparatus used was constituted with Waters 2695 Separations Module (Nihon Waters) and 3100 Mass Detector (Nihon Waters). Each compound was quantified by the absolute calibration curve method.

[1] = Administration of M700, 3.56 mg/kg (9.4 μmol/kg) oral, ddY male mice, plasma, label = analyte measured
[2] = mouse, 3.3 mg/kg, Administration of AM80, 3.30 mg/kg (9.4 μmol/kg) oral, ddY male mice, plasma
[3] = mouse, 3.6 mg/kg, Administration of Y616, 3.60 mg/kg (9.4 μmol/kg) oral, ddY male mice, plasma, label = analyte measured
[4] = mouse, 3.6 mg/kg, Administration of Y616, 3.60 mg/kg (9.4 μmol/kg) oral, ddY male mice, plasma, label = analyte measured, read-out: AUC
[5] = mouse, 3.6 mg/kg, Administration of Y616, 3.60 mg/kg (9.4 μmol/kg) oral, ddY male mice, plasma, label = analyte measured, read-out: Tmax
[6] = mouse, Administration of M700, 3.56 mg/kg (9.4 μmol/kg) oral, ddY male mice, plasma, label = analyte measured
[7] = mouse, Administration of M700, 3.56 mg/kg (9.4 μmol/kg) oral, ddY male mice, plasma, label = analyte measured, read-out: AUC
[8] = mouse, Administration of M700, 3.56 mg/kg (9.4 μmol/kg) oral, ddY male mice, plasma, label = analyte measured, read-out: Tmax
[9] = oral, mouse, after administration of the labelled prodrug
[10] = oral, mouse, compared with the protium compound

Molecule	Cmax [3]	AUC [4]	Tmax [5]	half-life [3]	Cmax [6]	AUC [7]	Tmax [8]	half-life [6]	further results
4-[(5,6,7,8-tetrahydro-5,5,8,8-tetramethyl-2-naphthalenyl)carbamoyl]phenylcinnamic acid [Example M700-M1]									AUC [1]: 0.54 µM·h; Cmax [1]: 710 nM; Tmax [1]: 30 min; t½ [1]: 28.2 min
CC1(C)CCC(C)(C)c2cc(NC(=O)c3ccc(C(=O)O)cc3)ccc21 [Am80, 4-[(5,6,7,8-tetrahydro-5,5,8,8-tetramethyl-2-naphthalenyl)carbamoyl]benzoic acid]	930 nM	3.48 µM·h	60 min	133 min	1060 nM	2.74 µM·h	60 min	73.2 min	Cmax [2]: 1870 nM; AUC (mouse, 3.3 mg/kg, Administration of AM80, 3.30 mg/kg (9.4 μmol/kg) oral, ddY male mice, plasma, read-out: AUC): 2.8 µM·h; Tmax (mouse, 3.3 mg/kg, Administration of AM80, 3.30 mg/kg (9.4 μmol/kg) oral, ddY male mice, plasma, read-out: Tmax): 30 min; half-life [2]: 48.6 min
CC1(C)CCC(C)(C)c2cc(NC(=O)c3ccc(CCC(=O)O)cc3)ccc21 [Example M700, 3-[4-[(5,6,7,8-tetrahydro-5,5,8,8-tetramethyl-2-naphthalenyl)carbamoyl]phenyl]propionic acid]					1620 nM	1.32 µM·h	30 min	28.2 min	
CC1(C)CCC(C)(C)c2cc(NC(=O)c3ccc(C(O)CC(=O)O)cc3)ccc21 (centres unmarked) [Example M700-M2, 3-[4-[(5,6,7,8-tetrahydro-5,5,8,8-tetramethyl-2-naphthalenyl)carbamoyl]phenyl]-3-hydroxypropionic acid]					20 nM	0.02 µM·h	30 min	25.8 min	
[2H]C([2H])(C(=O)O)C([2H])([2H])c1ccc(C(=O)Nc2ccc3c(c2)C(C)(C)CCC3(C)C)cc1 [Example Y616, 3-[4-[(5,6,7,8-tetrahydro-5,5,8,8-tetramethyl-2-naphthalenyl)carbamoyl]phenyl]propionic acid-2,2,3,3-d4]	1370 nM	1.95 µM·h	30 min	49.8 min					metabolic intermediate M1 generated [9]: markedly decreased; metabolic intermediate M2 generated [9]: not observed; AUC of the prodrug [10]: increased; half-life (t½) of the prodrug [10]: extended
